Measured values published in BindingDB's records for doi:10.1111/cbdd.12372 (Beijing University of Technology, 2015).

Target: T1, Casein kinase II subunit alpha [1-337] (Homo sapiens, UniProt P68400)
T1 construct: 1-337
Test: Molecular Docking
From the text: The atomic co-ordinates of CK2α were retrieved from the Protein Data Bank [PDB ID: 3PE1] by deleting the heteroatoms except for water molecules within 6.5 of the ligand. Compounds 12, 23, 10, and 27 were constructed with the SYBYL 8.1 programa using compound CX-4945 as the template and were energy minimized with the Tripos force field. Four compounds were docked into the active site of CK2α using the molecular docking program Genetic Optimization for Ligand Docking (GOLD) version 3.0. The active site of CK2α was defined as a 6.5- -radius sphere centered on CX-4945, which comprise all complete amino acids there in. The crystal structure of CK2a in complex with compound CX-4945 was used to optimize docking parameters and evaluate the reliability of the docking methods. The standard default genetic algorithm (GA) parameters were used for all calculations and applied to predi

T1 sequence (P68400 1-337): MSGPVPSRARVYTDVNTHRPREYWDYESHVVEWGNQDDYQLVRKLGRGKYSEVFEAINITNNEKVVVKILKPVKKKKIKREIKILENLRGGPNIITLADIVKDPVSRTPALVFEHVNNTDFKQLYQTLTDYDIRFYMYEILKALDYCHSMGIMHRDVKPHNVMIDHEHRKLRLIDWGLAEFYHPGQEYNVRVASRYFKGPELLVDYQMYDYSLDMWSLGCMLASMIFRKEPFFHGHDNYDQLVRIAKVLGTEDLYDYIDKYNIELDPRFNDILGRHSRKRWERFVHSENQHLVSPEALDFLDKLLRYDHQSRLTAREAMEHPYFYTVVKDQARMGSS

IC50: > 2500 nM
Structure (SMILES): N#Cc1ccc2c(c1)nc(-c1ccc(Cl)cc1)c1ccncc12 [5-(4-chlorophenyl)benzo[c]2,6-naphthyridine-8-carbonitrile (Compound 10)]
